Experimental data from patent publication US20250361268A1, “NOVEL ANTI-INFLAMMATORY PEPTIDE AND USE THEREOF” (NOVACELL TECHNOLOGY INC., priority 2022, published 2025).
pEC50: −log10 of the molar value. Peptide text beside a SMILES is read from it.

Assays:
FPR1 = biological target: T1, FPR1 (Homo sapiens, UniProt P21462); test: Change in calcium activity by peptide, FPR1 activation effect; assay type: cell-based; details: calcium activity (Fura-2), graded per Table 3, read-out: EC50 for [Ca^2+] FPR1
T1 sequence (P21462 1-350): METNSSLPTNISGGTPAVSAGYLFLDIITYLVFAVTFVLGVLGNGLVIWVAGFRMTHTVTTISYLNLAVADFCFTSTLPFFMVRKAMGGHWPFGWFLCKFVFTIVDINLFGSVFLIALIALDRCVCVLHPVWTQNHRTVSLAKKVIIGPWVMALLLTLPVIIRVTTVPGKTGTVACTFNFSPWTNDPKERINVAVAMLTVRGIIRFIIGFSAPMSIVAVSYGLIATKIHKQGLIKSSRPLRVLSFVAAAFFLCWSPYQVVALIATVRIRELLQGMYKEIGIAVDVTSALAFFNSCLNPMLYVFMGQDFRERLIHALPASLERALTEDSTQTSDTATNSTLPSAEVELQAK
Method in brief: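 Cells plated at 3×10^5 per well the day before were loaded with Fura-2 for 1 h at 37 °C, then kept 30 min in the dark at room temperature. Peptide-evoked calcium changes were recorded on a FlexStation 3.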

FPR2 = biological target: T2, FPR2 (Homo sapiens, UniProt P25090); test: Change in calcium activity by peptide (Fura-2) in RBL cells overexpressing FPR2; assay type: cell-based; details: calcium activity (Fura-2), graded per Table 3, read-out: EC50 for [Ca^2+] FPR2
T2 construct: expressed in transfected cells; host or cells: RBL cells (RBL-FPR2)
T2 sequence (P25090 1-351): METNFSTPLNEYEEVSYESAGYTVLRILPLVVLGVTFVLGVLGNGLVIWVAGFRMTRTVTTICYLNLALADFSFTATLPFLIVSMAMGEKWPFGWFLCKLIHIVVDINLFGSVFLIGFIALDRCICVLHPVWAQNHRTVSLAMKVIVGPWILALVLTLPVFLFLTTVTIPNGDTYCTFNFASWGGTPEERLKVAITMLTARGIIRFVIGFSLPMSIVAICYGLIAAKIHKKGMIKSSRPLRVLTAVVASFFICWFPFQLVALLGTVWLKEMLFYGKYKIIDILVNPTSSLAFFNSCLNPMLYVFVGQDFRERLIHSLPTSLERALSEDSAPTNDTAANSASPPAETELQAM
Method in brief: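 Rat basophilic leukemia cells overexpressing FPR2 loaded with Fura-2 (37 °C 1 h, then RT 30 min dark); peptides (0.5 mM stocks in water or 50% DMSO) diluted in HBSS + 20 mM HEPES and added on a plate reader, intracellular Ca2+ change recorded.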

SMILES	pEC50 (FPR1)	pEC50 (FPR2)
CCCC(=O)N[C@@H](Cc1c[nH]cn1)C(=O)N[C@@H](CCCCN)C(=O)N[C@@H](Cc1ccc(O)cc1)C(=O)N[C@@H](CCCCN)C(=O)N1CCC[C@H]1C(=O)N[C@H](CCSC)C(N)=O [Peptide 148] (HELM PEPTIDE1{[CCCC(=O)[*:2]].H.K.Y.K.P.[dM].[am]}$$$$V2.0)	< 5.00	> 8.00
CSCC[C@@H](NC(=O)[C@@H](NC(=O)[C@H](Cc1ccc(O)cc1)NC(=O)[C@H](Cc1ccc(O)cc1)NC(=O)[C@H](CCCNC(=N)N)NC(=O)[C@H](Cc1c[nH]c2ccccc12)NC(=O)[C@@H](N)CCCNC(=N)N)C(C)C)C(N)=O [Peptide 94] (HELM PEPTIDE1{R.W.R.Y.Y.V.[dM].[am]}$$$$V2.0)	5.00 to 6.00	> 8.00
CCCC(=O)N[C@@H](CCCNC(=N)N)C(=O)N[C@@H](CCSC)C(=O)N[C@@H](CCCNC(=N)N)C(=O)N[C@@H](Cc1ccc(O)cc1)C(=O)N[C@@H](Cc1c[nH]c2ccccc12)C(=O)N[C@@H](Cc1ccc(O)cc1)C(=O)N[C@H](CCSC)C(N)=O [Peptide 83] (HELM PEPTIDE1{[CCCC(=O)[*:2]].R.M.R.Y.W.Y.[dM].[am]}$$$$V2.0)	< 5.00	> 8.00
CCCC(=O)N[C@@H](CCSC)C(=O)N[C@@H](CCCNC(=N)N)C(=O)N[C@@H](Cc1ccc(O)cc1)C(=O)N[C@@H](Cc1c[nH]c2ccccc12)C(=O)N[C@@H](Cc1ccc(O)cc1)C(=O)N[C@H](CCSC)C(N)=O [Peptide 87] (HELM PEPTIDE1{[CCCC(=O)[*:2]].M.R.Y.W.Y.[dM].[am]}$$$$V2.0)	< 5.00	> 8.00
CSCC[C@H](NC(C)=O)C(=O)N[C@@H](CCCNC(=N)N)C(=O)N[C@@H](Cc1ccc(O)cc1)C(=O)N[C@@H](Cc1c[nH]c2ccccc12)C(=O)N[C@H](C(=O)N[C@H](CCSC)C(N)=O)C(C)C [Peptide 105] (HELM PEPTIDE1{[ac].M.R.Y.W.V.[dM].[am]}$$$$V2.0)	6.00 to 7.00	> 8.00
CSCC[C@@H](NC(=O)[C@@H](NC(=O)[C@H](Cc1c[nH]c2ccccc12)NC(=O)[C@H](Cc1ccc(O)cc1)NC(=O)[C@H](CCCNC(=N)N)NC(=O)[C@H](Cc1c[nH]c2ccccc12)NC(=O)[C@@H](N)CCCNC(=N)N)C(C)C)C(N)=O [Peptide 101] (HELM PEPTIDE1{R.W.R.Y.W.V.[dM].[am]}$$$$V2.0)	5.00 to 6.00	> 8.00
CSCC[C@H](N)C(=O)N[C@@H](CCCNC(=N)N)C(=O)N[C@@H](Cc1ccc(O)cc1)C(=O)N[C@@H](CCCCN)C(=O)N[C@H](C(=O)N[C@H](CCSC)C(N)=O)C(C)C [Peptide 13] (HELM PEPTIDE1{M.R.Y.K.V.[dM].[am]}$$$$V2.0)	< 5.00	> 8.00
CSCC[C@H](NC(=O)[C@H](CCCNC(=N)N)NC(C)=O)C(=O)N[C@@H](CCCNC(=N)N)C(=O)N[C@@H](Cc1ccc(O)cc1)C(=O)N[C@@H](Cc1ccc(O)cc1)C(=O)N1CCC[C@H]1C(=O)N[C@H](CCSC)C(N)=O [Peptide 119] (HELM PEPTIDE1{[ac].R.M.R.Y.Y.P.[dM].[am]}$$$$V2.0)	6.00 to 7.00	> 8.00
CSCC[C@H](NC(=O)[C@@H](N)Cc1c[nH]cn1)C(=O)N[C@@H](CCCNC(=N)N)C(=O)N[C@@H](Cc1ccc(O)cc1)C(=O)N[C@@H](CCCCN)C(=O)N[C@@H](Cc1ccc(O)cc1)C(=O)N[C@H](CCSC)C(N)=O [Peptide 44] (HELM PEPTIDE1{H.M.R.Y.K.Y.[dM].[am]}$$$$V2.0)	< 5.00	7.00 to 7.96
CCCC(=O)N1CCC[C@H]1C(=O)N[C@@H](CCSC)C(=O)N[C@@H](CCCCN)C(=O)N[C@@H](Cc1ccc(O)cc1)C(=O)N[C@@H](CCCCN)C(=O)N[C@H](C(=O)N[C@H](CCSC)C(N)=O)C(C)C [Peptide 27] (HELM PEPTIDE1{[CCCC(=O)[*:2]].P.M.K.Y.K.V.[dM].[am]}$$$$V2.0)	< 5.00	> 8.00
CCCC(=O)N[C@@H](CCSC)C(=O)N[C@@H](CCCNC(=N)N)C(=O)N[C@@H](Cc1ccc(O)cc1)C(=O)N[C@@H](CCCCN)C(=O)N[C@H](C(=O)N[C@H](CCSC)C(N)=O)C(C)C [Peptide 15] (HELM PEPTIDE1{[CCCC(=O)[*:2]].M.R.Y.K.V.[dM].[am]}$$$$V2.0)	< 5.00	> 8.00
CSCC[C@@H](NC(=O)[C@@H](NC(=O)[C@H](Cc1ccc(O)cc1)NC(=O)[C@H](Cc1ccc(O)cc1)NC(=O)[C@H](CCCCN)NC(=O)[C@H](Cc1c[nH]c2ccccc12)NC(=O)[C@@H](N)CCCCN)C(C)C)C(N)=O [Peptide 96] (HELM PEPTIDE1{K.W.K.Y.Y.V.[dM].[am]}$$$$V2.0)	5.00 to 6.00	> 8.00
CCCC(=O)N[C@H](C(=O)N[C@@H](CCCCN)C(=O)N[C@@H](Cc1ccc(O)cc1)C(=O)N[C@@H](CCCCN)C(=O)N[C@H](C(=O)N[C@H](CCSC)C(N)=O)C(C)C)[C@@H](C)CC [Peptide 136] (HELM PEPTIDE1{[CCCC(=O)[*:2]].I.K.Y.K.V.[dM].[am]}$$$$V2.0)	< 5.00	> 8.00
CCCC(=O)N1CCC[C@H]1C(=O)N[C@@H](CCCCN)C(=O)N[C@@H](Cc1ccc(O)cc1)C(=O)N[C@@H](CCCCN)C(=O)N[C@H](C(=O)N[C@H](CCSC)C(N)=O)C(C)C [Peptide 140] (HELM PEPTIDE1{[CCCC(=O)[*:2]].P.K.Y.K.V.[dM].[am]}$$$$V2.0)	< 5.00	> 8.00
CC[C@H](C)[C@H](N)C(=O)N[C@@H](CCCCN)C(=O)N[C@@H](Cc1ccccc1)C(=O)N[C@@H](Cc1c[nH]c2ccccc12)C(=O)N[C@@H](CCSC)C(=O)N[C@H](CCSC)C(N)=O [Peptide 129] (HELM PEPTIDE1{I.K.F.W.M.[dM].[am]}$$$$V2.0)	< 5.00	7.00 to 7.96
CSCC[C@H](NC(=O)[C@@H](N)Cc1c[nH]cn1)C(=O)N[C@@H](CCCNC(=N)N)C(=O)N[C@@H](Cc1ccc(O)cc1)C(=O)N[C@@H](CCCCN)C(=O)N1CCC[C@H]1C(=O)N[C@H](CCSC)C(N)=O [Peptide 58] (HELM PEPTIDE1{H.M.R.Y.K.P.[dM].[am]}$$$$V2.0)	< 5.00	> 8.00
CSCC[C@H](NC(=O)[C@@H]1CCCN1C(C)=O)C(=O)N[C@@H](CCCCN)C(=O)N[C@@H](Cc1ccc(O)cc1)C(=O)N[C@@H](CCCCN)C(=O)N[C@H](C(=O)N[C@H](CCSC)C(N)=O)C(C)C [Peptide 26] (HELM PEPTIDE1{[ac].P.M.K.Y.K.V.[dM].[am]}$$$$V2.0)	< 5.00	> 8.00
CCCC(=O)N[C@@H](Cc1c[nH]cn1)C(=O)N[C@@H](CCSC)C(=O)N[C@@H](CCCNC(=N)N)C(=O)N[C@@H](Cc1ccc(O)cc1)C(=O)N[C@@H](Cc1c[nH]c2ccccc12)C(=O)N[C@@H](Cc1ccc(O)cc1)C(=O)N[C@H](CCSC)C(N)=O [Peptide 93] (HELM PEPTIDE1{[CCCC(=O)[*:2]].H.M.R.Y.W.Y.[dM].[am]}$$$$V2.0)	5.00 to 6.00	> 8.00
CSCC[C@H](N)C(=O)N[C@@H](CCCNC(=N)N)C(=O)N[C@@H](Cc1ccc(O)cc1)C(=O)N[C@@H](Cc1ccc(O)cc1)C(=O)N1CCC[C@H]1C(=O)N[C@H](CCSC)C(N)=O [Peptide 120] (HELM PEPTIDE1{M.R.Y.Y.P.[dM].[am]}$$$$V2.0)	6.00 to 7.00	> 8.00
CSCC[C@@H](NC(=O)[C@@H]1CCCN1C(=O)[C@H](Cc1c[nH]c2ccccc12)NC(=O)[C@H](Cc1ccc(O)cc1)NC(=O)[C@H](CCCCN)NC(=O)[C@H](Cc1c[nH]cn1)NC(C)=O)C(N)=O [Peptide 150] (HELM PEPTIDE1{[ac].H.K.Y.W.P.[dM].[am]}$$$$V2.0)	5.00 to 6.00	> 8.00
CSCC[C@@H](NC(=O)[C@@H](NC(=O)[C@H](Cc1c[nH]c2ccccc12)NC(=O)[C@H](Cc1ccc(O)cc1)NC(=O)[C@H](CCCNC(=N)N)NC(=O)[C@H](Cc1c[nH]c2ccccc12)NC(C)=O)C(C)C)C(N)=O [Peptide 102] (HELM PEPTIDE1{[ac].W.R.Y.W.V.[dM].[am]}$$$$V2.0)	6.00 to 7.00	> 8.00
CSCC[C@@H](NC(=O)[C@@H](NC(=O)[C@H](Cc1c[nH]c2ccccc12)NC(=O)[C@H](Cc1ccc(O)cc1)NC(=O)[C@H](CCCCN)NC(=O)[C@H](Cc1c[nH]c2ccccc12)NC(=O)[C@H](CCCCN)NC(C)=O)C(C)C)C(N)=O [Peptide 103] (HELM PEPTIDE1{[ac].K.W.K.Y.W.V.[dM].[am]}$$$$V2.0)	5.00 to 6.00	7.00 to 7.96
CSCC[C@@H](NC(=O)[C@H](Cc1ccc(O)cc1)NC(=O)[C@H](Cc1ccc(O)cc1)NC(=O)[C@H](Cc1ccc(O)cc1)NC(=O)[C@H](CCCNC(=N)N)NC(=O)[C@H](Cc1c[nH]c2ccccc12)NC(=O)[C@@H](N)CCCNC(=N)N)C(N)=O [Peptide 123] (HELM PEPTIDE1{R.W.R.Y.Y.Y.[dM].[am]}$$$$V2.0)	< 5.00	> 8.00
